# Test results from article PMC6264193, “Synthesis and Biological Evaluation of Novel ^99mTc-Labelled Bisphosphonates as Superior Bone Imaging Agents” (Molecules, 2011).
# Tests used:
# bone resorption = test system: bone resorption; design: method as in PMID 18593621; conditions: preclinical models of bone resorption; cited from earlier work
melting point [°C],Compound,potency relative to clodronate and pamidronate (bone resorption),potency relative to etidronate (bone resorption)
183 to 186,"Cc1nccn1CCC(O)(P(=O)(O)O)P(=O)(O)O [Compound 4a, 1-Hydroxy-3-(2-methyl-1H-imidazol-1-yl)propane-1,1-diyldiphosphonic acid]",,
142 to 145,"Cc1nccn1CCCC(O)(P(=O)(O)O)P(=O)(O)O [Compound 4b, 1-Hydroxy-4-(2-methyl-1H-imidazol-1-yl)butane-1,1-diyldiphosphonic acid]",,
212 to 215,"Cc1nccn1CCCCC(O)(P(=O)(O)O)P(=O)(O)O [Compound 4c, 1-Hydroxy-5-(2-methyl-1H-imidazol-1-yl)pentane-1,1-diyldiphosphonic acid]",,
,"O=P(O)(O)C(O)(Cn1ccnc1)P(=O)(O)O [ZL, 1-hydroxy-2-(imidazol-1-yl)-ethylidene-1,1-bisphosphonic acid]",at least 100 times,"at least 1,000 times"
